Laboratory results: patent publication US8679478B2, “Methods of lysosomal storage disease therapy” (Duke University, priority 2010, dated 2014)

Key:
Format in all cases: in vivo, mouse
GAA-KO mice [1] = test: Glycogen content in tissues, gene therapy plus clenbuterol; settings: vector plus clenbuterol v. vector alone
Description: (§1) FIG. 5A-5B depicts enhanced efficacy from liver-targeted gene therapy plus clenbuterol treatment. The GAA-KO mice were injected with AAV-LSPhGAA (2×10^10 vector particles/mouse) or uninjected (5 per group). Vector-treated mice were treated with AAV-LSPhGAA and clenbuterol or with AAV-LSPhGAA alone. Untreated (mock) GAA-KO mice were used as controls. Mice were euthanized for tissue analysis 4 weeks after vector injection. […] Statistically significant differences indicated (*=p<0.05; **=p<0.01).
(§2) For in vivo analysis of AAV vectors, stocks were administered intravenously (via the retroorbital sinus) in 3 month-old and 15 month-old GAA-KO mice, and to 3 month-old tolerant GAA-KO and DKO mice. Clenbuterol (30 μg/ml) was administered to groups of 3 month-old vector-injected and mock-injected male GAA-KO mice in drinking water for 28 days. At the indicated time points post-injection, tissue samples were obtained and processed as described below. All animal procedures were done in accordance with Duke University Institutional Animal Care and Use Committee-approved guidelines. GAA activity and glycogen content were analyzed essentially as described (Sun et al., Mol. Ther., 2005, 11:889-898; Sun et al., Mol. Ther., 2005, 11: 57-65). Rotarod testing was performed essentially as described (Sun, B. D. et al. 2005). Western blotting of hGAA was performed essentially as described (Amalfitano et al., Proc. Natl. Acad. Sci. USA, 1999, 96: 8861-8866) using the hGAA monoclonal antibody (courtesy of Genzyme Corp., Framingham, Mass.) and the CI-MPR antibody (catalog number GTX28093; Gene Tex, Irvine, Calif.).
Based upon the implication that CI-MPR expression was crucial to both uptake and intracellular processing of GAA in Pompe disease, levels of CI-MPR in GAA-KO mice were manipulated. A related but distinct strategy for addressing the apparently limiting role of CI-MPR expression in achieving efficacy with ERT in Pompe disease involved enhancement of rhGAA glycosylation (Raben et al., Mol. Genet. Metab., 2003, 80: 159-169; Raben et al., Transgenic Res., 2003, 12: 171-178; McVie-Wylie et al., Mol. Genet. Metab., 2008, 94: 448-455). […] The vector-transduced liver depot was enhanced by the addition of a drug, clenbuterol, which increases the expression of CI-MPR in muscle (Matsumoto et al., Arch. Oral Biol., 2006 51:603-611). The liver was transduced by administering AAV-LSPhGAA (2×10^10 vector particles) to groups of 3 month-old male GAA-KO mice, and clenbuterol (30 μg/ml) was administered to groups of 3 month-old vector-injected and mock-injected male GAA-KO mice in drinking water.

[2] = tested on: immune tolerant GAA-KO mice; test: Glycogen content in tissues, ERT plus β2 agonist (Example 6)
Description: (§3) Male GAA-KO mice were administered four weekly doses of 20 mg/kg body weight of rhGAA and sacrificed one week following the last injection. Groups of mice were treated with clenbuterol (n=6), albuterol (n=4) or untreated (n=6). Mice were euthanized for tissue analysis 5 weeks after initiation of ERT.
(§4) Cerebral and cerebellar hemispheres were analyzed 5 weeks following the initiation of ERT. Groups of mice were treated with clenbuterol (n=6), albuterol (n=4) or untreated (n=6).
(§5) Two β2 agonists were evaluated in combination with ERT, clenbuterol and albuterol. […] Groups of 3 month-old immune tolerant GAA-KO mice (Raben et al., Human Mol. Genet., 2001, 10:2039-2047) were treated with four weekly doses of rhGAA (20 mg/kg body weight), with or without concurrent β2 agonist treatment.
(§6) Mice were sacrificed 7 days after the last injection. Selected tissues were collected for GAA enzyme activity and glycogen content analyses. All animal procedures were done in accordance with Duke University Institutional Animal Care and Use Committee-approved guidelines. GAA activity and glycogen content analyses, Rotarod testing, and Western blot detection of CI-MPR was performed essentially as described (Koeberl et al., Mol. Genet. Metab., 2011, 103:107-112. Wire hang testing was performed with a 0.5 cm mesh hardware cloth fixed to an 8 by 10 inch frame. Mice were placed on the wire mesh, which was slowly inverted 6 inches over a cage containing paper bedding. The latency, or time until the mouse fell into the cage, was recorded.

GAA-KO mice [3] = test: GAA activity in tissues, gene therapy plus clenbuterol
Description: as §1
as §2, with “Western blotting of hGAA was performed essentially as described (Amalfitano et al., Proc. Natl. Acad. Sci. USA, 1999, 96: 8861-8866) using the hGAA monoclonal antibody (courtesy of Genzyme Corp., Framingham, Mass.) and the CI-MPR antibody (catalog number GTX28093; Gene Tex, Irvine, Calif.).” left out

[4] = tested on: immune tolerant GAA-KO mice; test: Histopathology of brain, glycogen staining; settings: cerebellum; in comparison with ERT alone
Description: Histopathology was performed to examine brain involvement, and glycogen accumulations were detected in the cerebellum with ERT alone. Albuterol and clenbuterol each reduced the glycogen staining in the cerebellum, in comparison with ERT alone.

[5] = tested on: immune tolerant GAA-KO mice; test: GAA activity in tissues, ERT plus β2 agonist (Example 6)
Description: as §3, §4, §5, §6

[6] = tested on: immune tolerant GAA-KO mice; test: Rotarod testing, ERT plus β2 agonist (Example 6); settings: after 4 weeks of treatment; clenbuterol 6 mg/l drinking water plus ERT v. ERT alone
Description: GAA-KO mice were administered four weekly doses of rhGAA (20 mg/kg), and treated with medium dose clenbuterol (n=7), albuterol (n=4) or untreated (n=6 or 3). […] Mean+/−standard deviation are shown. P values indicate statistically significant differences (lines).
Two β2 agonists were evaluated in combination with ERT, clenbuterol and albuterol. The dose of clenbuterol was reduced 5-fold from the concentration used in Example 4, to 6 mg/l in drinking water, while albuterol was evaluated at the higher dose (30 mg/l in drinking water). Groups of 3 month-old immune tolerant GAA-KO mice (Raben et al., Human Mol. Genet., 2001, 10:2039-2047) were treated with four weekly doses of rhGAA (20 mg/kg body weight), with or without concurrent β2 agonist treatment.
as §6, with “All animal procedures were done in accordance with Duke University Institutional Animal Care and Use Committee-approved guidelines.” left out

For `CC(C)(C)NCC(O)c1cc(Cl)c(N)c(Cl)c1` (stereo not shown) [clenbuterol], the Glycogen content (GAA-KO mice [1]; EDL, p=0.002) was “reduced”, the Glycogen content (GAA-KO mice [1]; cerebellum, p=0.03) was “reduced” and the Glycogen content (GAA-KO mice [1]; cerebrum, p<5×10^−5) was “reduced”. The Glycogen content (GAA-KO mice [1]; diaphragm, p=0.04) was “reduced”, the Glycogen content (GAA-KO mice [1]; soleus, p=0.0006) was “reduced” and the Glycogen content ([2]; all striated muscles with the exception of tibialis anterior, clenbuterol plus ERT v. ERT alone) was “reduced significantly”. For the same compound, the Glycogen content ([2]; cerebellum, β2 agonist plus ERT v. ERT alone) was “reduced significantly”, the GAA activity (GAA-KO mice [3]; heart, vector plus clenbuterol v. vector alone, p=0.03) was “significantly increased” and the GAA activity (GAA-KO mice [3]; skeletal muscles and the brain, clenbuterol administration with vector) was “significantly increased”. For the same compound, the “glycogen staining (histopathology)” value [4] was “reduced”, the GAA activity ([5]; cerebellum, 5 weeks after initiation of ERT, clenbuterol p=0.08, albuterol p=0.09) was “trend toward increased GAA activity” and the “GAA activity in tissues with reduced glycogen content” value ([5]; β2 agonist plus ERT v. ERT alone) was “unchanged”. The Rotarod latency [6] was “significantly increased”.
